Measured values published in patent US4382084A, “Antibiotics” (Beecham Group Limited, priority 1975, dated 1983).

Experiments:
[1] = molecular target: E. coli JT4 β-lactamase (Escherichia coli, UniProt P62593); assay: β-lactamase inhibition assay (Belgian Patent No. 827926); type: biochemical; details: enzyme of E. coli JT4; read-out: Approximate I50 (converted)
Description: (§1) When the compound prepared by the method of Example 1 was tested against certain enzymes by the β-lactamase inhibition assay described in Belgian Patent No. 827926 the following ^I 50 values were obtained: […]

[2] = tested on: E. coli JT10 β-lactamase; assay: as above; type: biochemical; details: enzyme of E. coli JT10
Description: as §1

[3] = molecular target: Staphylococcus aureus (Russell) β-lactamase (Staphylococcus aureus, UniProt P00807); assay: as above; type: biochemical; details: enzyme of Staphylococcus aureus (Russell); read-out: Approximate I50 (converted)
Description: as §1

[4] = molecular target: Klebsiella aerogenes AE70 β-lactamase; assay: as above; type: biochemical; details: enzyme of Klebsiella aerogenes AE70
Description: as §1

[5] = Acute toxicity in mice; details: mouse, in vivo
[6] = tested on: Staphylococcus aureus Russell; assay: MIC test of synergy with ampicillin; type: cell-based; details: ampicillin administered separately, read-out: MIC of ampicillin alone (not inhibited by)
Description: b. […] The following test results were obtained using a strain of Staphylococcus aureus Russell which is neither inhibited by 250 μg/ml of ampicillin nor inhibited by 5 μg/ml of synergist aministered separately.

Chain of Staphylococcus aureus (Russell) β-lactamase (P00807 25-281): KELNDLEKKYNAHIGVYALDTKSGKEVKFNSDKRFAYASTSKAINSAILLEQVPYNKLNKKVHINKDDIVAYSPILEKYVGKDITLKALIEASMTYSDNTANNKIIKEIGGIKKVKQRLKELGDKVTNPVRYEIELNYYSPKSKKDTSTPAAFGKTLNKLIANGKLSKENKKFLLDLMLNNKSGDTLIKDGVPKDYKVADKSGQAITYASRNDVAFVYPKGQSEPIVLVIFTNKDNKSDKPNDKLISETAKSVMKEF
Chain of E. coli JT4 β-lactamase (P62593 24-286 limits assumed): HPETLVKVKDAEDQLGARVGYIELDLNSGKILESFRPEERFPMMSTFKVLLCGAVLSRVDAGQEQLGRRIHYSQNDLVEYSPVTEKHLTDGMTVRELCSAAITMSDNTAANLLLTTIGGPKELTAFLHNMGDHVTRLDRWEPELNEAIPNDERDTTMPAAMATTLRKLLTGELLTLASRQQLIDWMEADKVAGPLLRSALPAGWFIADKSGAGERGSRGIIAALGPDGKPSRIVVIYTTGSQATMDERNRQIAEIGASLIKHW

With O=C(OCc1ccccc1)[C@H]1/C(=C/CN(Cc2ccccc2)Cc2ccccc2)O[C@@H]2CC(=O)N21 [Example 1] the IC50 [1] was 42.7 µM, the “Approximate I50” value [2] was 0.24 mg/mL and the IC50 [3] was 128 µM. For the same molecule, the “Approximate I50” value [4] was 0.40 mg/mL.
In the case of C=CCN(CC=C)C/C=C1\O[C@@H]2CC(=O)N2[C@H]1C(=O)OCc1ccccc1 [Example 8, Benzyl diallylaminodeoxyclavulanate], the LD50 ([5]; oral route) is reported as greater than 500 mg/kg and the LD50 ([5]; sc, sub-cutaneous route) is reported as greater than 500 mg/kg.
Work on CCCN(C/C=C1\O[C@@H]2CC(=O)N2[C@H]1C(=O)O)CCC [Example 12, 9-(N,N-dipropylamino)-9-deoxyclavulanio acid] yielded an LD50 ([5]; oral route) greater than 500 mg/kg and an LD50 ([5]; sc, sub-cutaneous route) greater than 500 mg/kg.
CC1(C)S[C@@H]2[C@H](NC(=O)[C@H](N)c3ccccc3)C(=O)N2[C@H]1C(=O)O [ampicillin] showed an MIC [6] greater than 250 µg/mL.
